Structures are written as SMILES. Several values for one entry are separate records, joined by “and”; a condition that tells them apart may be missing. Identical values can stand only once. Inconclusive results and toxic doses are left out.

Our source for the T/C values is PubChem BioAssay AID328 (DTP/NCI, 2004).

The subject of this test is BDF1 mice, P388 leukemia ip, median survival T/C. Kind of test: NCI In Vivo Anticancer Drug Screen. Data for tumor model P388 Leukemia (intraperitoneal) in B6D2F1 (BDF1) mice. The note with it: endpoint: median survival time, higher = longer survival. An outline of the steps:
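Steps: implant the tumour, treat one group with compound and another with vehicle, record survival, then divide treated by control.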

Setting [1] is: dose: 25.0 mg/kg/injection, schedule: Q04DX003 (ip), vehicle: saline with Tween-80.
[2] abbreviates: dose: 100.0 mg/kg/injection, schedule: Q04DX003 (ip), vehicle: saline with Tween-80.
Where [3] appears, read: dose: 100.0 mg/kg/injection, schedule: Q04DX003 (ip), vehicle: Klucel (hydroxypropylcellulose) (HPC).
Setting [4] is: dose: 200.0 mg/kg/injection, schedule: Q04DX003 (ip), vehicle: Klucel (hydroxypropylcellulose) (HPC).
[5] abbreviates: dose: 400.0 mg/kg/injection, schedule: Q04DX003 (ip), vehicle: Klucel (hydroxypropylcellulose) (HPC).
Where [6] appears, read: dose: 100.0 mg/kg/injection, schedule: Q01DX009 (ip), vehicle: Klucel (hydroxypropylcellulose) (HPC).
Setting [7] is: dose: 200.0 mg/kg/injection, schedule: Q01DX009 (ip), vehicle: Klucel (hydroxypropylcellulose) (HPC).

Turning to `C=CCOP(OCC=C)OCC=C`, the T/C reads like this: (dose: 25.0 mg/kg/injection, schedule: Q01DX009 (ip), vehicle: saline) 90 % of control; (dose: 25.0 mg/kg/injection, schedule: Q04DX003 (ip), vehicle: saline) 95 % of control; (dose: 50.0 mg/kg/injection, schedule: Q01DX009 (ip), vehicle: saline) 90 % of control; (dose: 100.0 mg/kg/injection, schedule: Q01DX009 (ip), vehicle: saline) 104 % of control; (dose: 100.0 mg/kg/injection, schedule: Q04DX003 (ip), vehicle: saline) 100 % of control.
`O=[N+]([O-])c1ccc(N2CCN=N2)cc1`: the T/C is 104 % of control (dose: 25.0 mg/kg/injection, schedule: Q01DX010 (ip), vehicle: saline); 100 % of control (dose: 25.0 mg/kg/injection, schedule: Q04DX003 (ip), vehicle: saline sonified); 123 % of control (dose: 50.0 mg/kg/injection, schedule: Q01DX010 (ip), vehicle: saline); 95 % of control (dose: 50.0 mg/kg/injection, schedule: Q04DX003 (ip), vehicle: saline sonified); 86 % of control (dose: 100.0 mg/kg/injection, schedule: Q04DX003 (ip), vehicle: saline sonified).
Consider `CC(C)(C)c1cc2c3c(c1)C(C)(C)OS3(C)OC2(C)C`, for which the T/C is 102 % of control (dose: 6.25 mg/kg/injection, schedule: Q04DX003 (ip), vehicle: saline with Tween-80); 100 % of control (dose: 12.5 mg/kg/injection, schedule: Q04DX003 (ip), vehicle: saline with Tween-80); 92 % of control under setting [1].
Turning to `CSC(=S)N/N=C(\C)c1ccccn1`, the T/C reads like this: under setting [1], 92 % of control; (dose: 50.0 mg/kg/injection, schedule: Q04DX003 (ip), vehicle: saline with Tween-80) 99 % of control; under setting [2], 106 % of control.
As for `CCCCCCCCCCCCCCCC(=O)N(CC#N)CC#N`, the T/C under setting [3] is 100 % of control, the T/C under setting [4] was 100 % of control and the T/C under setting [5] was 90 % of control.
Take `N=[N+]=CC(=O)CCC(NC(=O)C(CCC(=O)C=[N+]=N)NC(=O)CCC(N)C(=O)O)C(=O)O` (stereo not drawn): the T/C is, setting by setting: (dose: 0.1 mg/kg/injection, schedule: Q01DX009 (ip), vehicle: Klucel (hydroxypropylcellulose) (HPC)) 88 % of control; (dose: 0.2 mg/kg/injection, schedule: Q01DX009 (ip), vehicle: Klucel (hydroxypropylcellulose) (HPC)) 92 % of control; (dose: 0.2 mg/kg/injection, schedule: Q01DX009 (ip), vehicle: water) 163 % of control; (dose: 0.2 mg/kg/injection, schedule: Q01DX010 (ip), vehicle: other) 170 % of control; (dose: 0.3 mg/kg/injection, schedule: Q01DX009 (ip), vehicle: water) 109 % of control; (dose: 0.4 mg/kg/injection, schedule: Q01DX009 (ip), vehicle: Klucel (hydroxypropylcellulose) (HPC)) 94 % of control. The T/C is, setting by setting: (dose: 0.4 mg/kg/injection, schedule: Q01DX009 (ip), vehicle: water) 150 % of control; (dose: 0.4 mg/kg/injection, schedule: Q01DX010 (ip), vehicle: other) 210 % of control; (dose: 0.4 mg/kg/injection, schedule: Q01DX010 (ip), vehicle: water) 172 % of control; (dose: 0.5 mg/kg/injection, schedule: Q01DX009 (ip), vehicle: water) 86 % of control; (dose: 0.6 mg/kg/injection, schedule: Q01DX009 (ip), vehicle: water) 90 % of control; (dose: 0.6 mg/kg/injection, schedule: Q01DX010 (ip), vehicle: other) 120 % of control. The T/C was 109 % of control and 110 % of control (dose: 0.6 mg/kg/injection, schedule: Q01DX010 (ip), vehicle: water); 102 % of control (dose: 0.8 mg/kg/injection, schedule: Q01DX009 (ip), vehicle: Klucel (hydroxypropylcellulose) (HPC)); 110 % of control (dose: 0.8 mg/kg/injection, schedule: Q01DX010 (ip), vehicle: other); 100 % of control (dose: 0.8 mg/kg/injection, schedule: Q01DX010 (ip), vehicle: water); 90 % of control (dose: 1.0 mg/kg/injection, schedule: Q01DX010 (ip), vehicle: water); 97 % of control (dose: 1.6 mg/kg/injection, schedule: Q01DX009 (ip), vehicle: Klucel (hydroxypropylcellulose) (HPC)). Moreover, the T/C is 163 % of control (dose: 2.5 mg/kg/injection, schedule: Q02DX005 (oral), vehicle: other); 159 % of control (dose: 5.0 mg/kg/injection, schedule: Q02DX005 (oral), vehicle: other); 154 % of control (dose: 7.5 mg/kg/injection, schedule: Q04DX003 (ip), vehicle: water); 177 % of control (dose: 10.0 mg/kg/injection, schedule: Q02DX005 (oral), vehicle: other); 172 % of control (dose: 12.5 mg/kg/injection, schedule: Q04DX003 (oral), vehicle: water); 209 % of control (dose: 15.0 mg/kg/injection, schedule: Q02DX005 (oral), vehicle: other). Besides, the T/C was 200 % of control (dose: 15.0 mg/kg/injection, schedule: Q04DX003 (ip), vehicle: water); 195 % of control (dose: 20.0 mg/kg/injection, schedule: Q02DX005 (oral), vehicle: other); 200 % of control (dose: 25.0 mg/kg/injection, schedule: Q04DX003 (oral), vehicle: water); 218 % of control (dose: 30.0 mg/kg/injection, schedule: Q04DX003 (ip), vehicle: water); 222 % of control (dose: 50.0 mg/kg/injection, schedule: Q04DX003 (oral), vehicle: water); 104 % of control (dose: 100.0 mg/kg/injection, schedule: Q04DX003 (oral), vehicle: water).
Regarding `COC(=O)C(Br)C(Br)N1C(=O)c2ccccc2C1=O` (stereo not drawn), the T/C under setting [6] is 100 % of control; the T/C under setting [3] was 104 % of control; the T/C under setting [7] is 104 % of control; the T/C under setting [4] is 100 % of control; the T/C (dose: 400.0 mg/kg/injection, schedule: Q01DX009 (ip), vehicle: Klucel (hydroxypropylcellulose) (HPC)) is 108 % of control; the T/C under setting [5] is 109 % of control.
Regarding `CCOC(=O)c1ccc(NS(=O)c2ccccc2)cc1` (stereo not drawn), the T/C is 100 % of control (dose: 50.0 mg/kg/injection, schedule: Q01DX009 (ip), vehicle: saline with Tween-80); 93 % of control (dose: 100.0 mg/kg/injection, schedule: Q01DX009 (ip), vehicle: saline with Tween-80); 111 % of control (dose: 200.0 mg/kg/injection, schedule: Q01DX009 (ip), vehicle: saline with Tween-80).
With `CC1(C)N=C(N)N=C(N)N1c1cccc(CCCCc2ccc(Cl)c(S(=O)(=O)F)c2)c1`, the T/C was 100 % of control (dose: 1.8 mg/kg/injection, schedule: Q01DX009 (ip), vehicle: saline); 112 % of control (dose: 3.13 mg/kg/injection, schedule: Q01DX009 (ip), vehicle: saline); 114 % of control (dose: 4.0 mg/kg/injection, schedule: Q01DX009 (ip), vehicle: saline); 122 % of control (dose: 6.0 mg/kg/injection, schedule: Q01DX009 (ip), vehicle: saline); 109 % of control (dose: 7.0 mg/kg/injection, schedule: Q04DX003 (ip), vehicle: saline); 107 % of control (dose: 9.0 mg/kg/injection, schedule: Q01DX009 (ip), vehicle: saline). Moreover, the T/C (dose: 12.5 mg/kg/injection, schedule: Q01DX009 (ip), vehicle: saline) was 120 % of control; the T/C (dose: 14.0 mg/kg/injection, schedule: Q01DX009 (ip), vehicle: saline) was 150 % of control; the T/C (dose: 14.0 mg/kg/injection, schedule: Q04DX003 (ip), vehicle: saline) is 118 % of control; the T/C (dose: 28.0 mg/kg/injection, schedule: Q04DX003 (ip), vehicle: saline) is 118 % of control; the T/C (dose: 56.0 mg/kg/injection, schedule: Q04DX003 (ip), vehicle: saline) was 104 % of control.
For the molecule `Cc1ccc(/C=C2/C=C(c3ccccc3)OC2=O)cc1`, the T/C runs as follows: (dose: 50.0 mg/kg/injection, schedule: Q01DX009 (ip), vehicle: Klucel (hydroxypropylcellulose) (HPC)) 109 % of control; under setting [6], 109 % of control; under setting [3], 100 % of control; under setting [7], 100 % of control; under setting [4], 95 % of control; under setting [5], 90 % of control.
Turning to `CCOC(=O)/C(C#N)=C/c1cc2c3c(c1)CCCN3CCC2`, the T/C runs as follows: under setting [2], 90 % of control; (dose: 200.0 mg/kg/injection, schedule: Q04DX003 (ip), vehicle: saline with Tween-80) 90 % of control; (dose: 400.0 mg/kg/injection, schedule: Q04DX003 (ip), vehicle: saline with Tween-80) 86 % of control.
